{"source": "ChEMBL document CHEMBL1136973", "about": "“Structure-activity relationships of heteroaromatic esters as human rhinovirus 3C protease inhibitors” (Bioorg Med Chem Lett, 2009)", "note": "Activity calls are given as the source filed them. The calls are words filed in the database; no cut-off is given here.", "data": [{"biological_target": "Genome polyprotein (rhinovirus A16) (UniProt Q82122)", "sequence (Q82122 whole entry)": "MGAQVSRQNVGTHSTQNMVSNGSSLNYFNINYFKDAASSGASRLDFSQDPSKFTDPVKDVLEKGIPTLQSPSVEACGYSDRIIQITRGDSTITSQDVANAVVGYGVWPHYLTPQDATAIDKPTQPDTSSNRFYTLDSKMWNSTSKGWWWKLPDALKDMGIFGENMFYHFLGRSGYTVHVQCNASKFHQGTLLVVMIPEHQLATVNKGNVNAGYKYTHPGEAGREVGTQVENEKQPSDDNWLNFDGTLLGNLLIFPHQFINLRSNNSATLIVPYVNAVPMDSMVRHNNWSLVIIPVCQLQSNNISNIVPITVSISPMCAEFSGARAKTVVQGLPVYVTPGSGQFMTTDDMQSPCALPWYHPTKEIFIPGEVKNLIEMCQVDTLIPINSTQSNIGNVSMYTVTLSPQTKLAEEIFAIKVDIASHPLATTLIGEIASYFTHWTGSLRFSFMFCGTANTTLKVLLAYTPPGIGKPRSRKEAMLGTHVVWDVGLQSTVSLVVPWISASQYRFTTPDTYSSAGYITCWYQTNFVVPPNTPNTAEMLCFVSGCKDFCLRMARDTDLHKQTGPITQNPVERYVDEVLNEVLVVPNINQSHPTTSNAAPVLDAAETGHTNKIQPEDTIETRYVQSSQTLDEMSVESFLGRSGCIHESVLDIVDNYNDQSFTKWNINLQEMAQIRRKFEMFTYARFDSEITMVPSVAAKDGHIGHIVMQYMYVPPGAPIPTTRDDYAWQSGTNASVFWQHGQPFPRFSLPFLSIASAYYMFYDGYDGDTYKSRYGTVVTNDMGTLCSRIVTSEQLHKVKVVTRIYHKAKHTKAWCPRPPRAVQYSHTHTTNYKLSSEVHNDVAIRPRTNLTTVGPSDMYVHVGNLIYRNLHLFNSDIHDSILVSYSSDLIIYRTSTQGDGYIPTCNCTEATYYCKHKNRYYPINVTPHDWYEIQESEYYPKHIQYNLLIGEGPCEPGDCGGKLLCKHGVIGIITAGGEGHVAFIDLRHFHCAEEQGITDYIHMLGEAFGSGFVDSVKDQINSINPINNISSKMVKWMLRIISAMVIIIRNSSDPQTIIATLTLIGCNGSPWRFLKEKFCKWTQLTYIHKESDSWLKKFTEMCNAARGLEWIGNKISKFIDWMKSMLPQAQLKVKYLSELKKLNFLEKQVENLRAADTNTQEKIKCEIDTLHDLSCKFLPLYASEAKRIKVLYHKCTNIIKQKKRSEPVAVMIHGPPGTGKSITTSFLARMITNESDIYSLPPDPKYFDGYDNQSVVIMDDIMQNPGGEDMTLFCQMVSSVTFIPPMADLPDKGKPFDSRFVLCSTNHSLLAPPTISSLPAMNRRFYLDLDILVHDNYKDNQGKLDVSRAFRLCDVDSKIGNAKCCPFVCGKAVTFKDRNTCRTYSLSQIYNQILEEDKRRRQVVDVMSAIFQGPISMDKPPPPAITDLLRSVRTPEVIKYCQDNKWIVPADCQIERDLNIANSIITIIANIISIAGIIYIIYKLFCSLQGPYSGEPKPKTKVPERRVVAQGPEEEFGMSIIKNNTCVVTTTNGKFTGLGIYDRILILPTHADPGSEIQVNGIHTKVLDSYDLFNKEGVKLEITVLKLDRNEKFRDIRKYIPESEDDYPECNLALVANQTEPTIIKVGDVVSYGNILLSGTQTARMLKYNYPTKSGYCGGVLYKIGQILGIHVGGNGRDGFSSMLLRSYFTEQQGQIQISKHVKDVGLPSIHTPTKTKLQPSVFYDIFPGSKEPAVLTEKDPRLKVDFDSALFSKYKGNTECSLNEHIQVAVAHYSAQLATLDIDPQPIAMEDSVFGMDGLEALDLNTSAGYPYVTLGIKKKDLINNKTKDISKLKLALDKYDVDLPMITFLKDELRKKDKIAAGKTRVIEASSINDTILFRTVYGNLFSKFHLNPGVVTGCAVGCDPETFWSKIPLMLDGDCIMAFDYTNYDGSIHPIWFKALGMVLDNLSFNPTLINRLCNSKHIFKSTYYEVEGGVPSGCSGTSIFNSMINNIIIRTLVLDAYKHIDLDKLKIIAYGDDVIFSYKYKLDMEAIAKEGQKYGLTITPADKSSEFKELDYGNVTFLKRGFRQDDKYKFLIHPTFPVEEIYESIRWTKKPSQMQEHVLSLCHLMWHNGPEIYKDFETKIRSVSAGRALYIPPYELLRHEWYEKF", "assay": "Inhibition of HRV-16 protease 3C expressed in Escherichia coli BL21(DE3) at 1 uM by FRET assay", "values": [{"molecule": "O=C(Oc1cncc(Br)c1)c1ccco1", "inhibition": "90%"}, {"molecule": "CCOc1nc(Cc2ccccc2)oc1C(=O)Oc1cncc(Cl)c1", "inhibition": "5%"}, {"molecule": "O=C(Oc1ccccn1)c1ccco1", "inhibition": "inactive"}, {"molecule": "Nc1ncccc1OC(=O)c1ccco1", "inhibition": "24%"}, {"molecule": "Cc1cc(C(=O)Oc2cncc(Cl)c2)no1", "inhibition": "inactive"}, {"molecule": "CCOc1nc(/C=C/c2ccccc2)oc1C(=O)Oc1cncc(Cl)c1", "inhibition": "87%"}, {"molecule": "NC(=O)c1cccc(OC(=O)c2ccco2)c1", "inhibition": "5%"}, {"molecule": "O=C(Oc1cncc(Cl)c1)c1ccco1", "inhibition": "87%"}, {"molecule": "O=C(Oc1cc(=O)[nH]c2ccccc12)c1ccco1", "inhibition": "98%"}, {"molecule": "O=C(Oc1cccnc1)c1ccco1", "inhibition": "8%"}, {"molecule": "O=C(Oc1cncc(Cl)c1)c1cccc2ccccc12", "inhibition": "75%"}, {"molecule": "O=C(/C=C/c1ccccc1)Oc1cncc(Br)c1", "inhibition": "63%"}, {"molecule": "Cc1ccc(-c2ccc(C(=O)Oc3cncc(Cl)c3)o2)cc1", "inhibition": "79%"}, {"molecule": "CCOc1nc(-c2ccccc2)oc1C(=O)Oc1cncc(Cl)c1", "inhibition": "inactive"}, {"molecule": "O=C(Oc1cccnc1C(=O)O)c1ccco1", "inhibition": "inactive"}, {"molecule": "O=C(Oc1cncc(Cl)c1)c1cccs1", "inhibition": "64%"}, {"molecule": "O=C(Oc1cncc(Cl)c1)c1cn(-c2ccc(C(F)(F)F)cc2)cn1", "inhibition": "40%"}, {"molecule": "O=C(CCc1ccccc1)Oc1cncc(Br)c1", "inhibition": "34%"}, {"molecule": "NC(=O)c1ccc(OC(=O)c2ccco2)cc1", "inhibition": "5%"}, {"molecule": "O=C(Oc1cncc(Cl)c1)c1ccc(-c2ccc([N+](=O)[O-])cc2)o1", "inhibition": "60%"}, {"molecule": "O=C(Oc1cncc(Cl)c1)c1ccccc1", "inhibition": "59%"}, {"molecule": "O=C(Oc1cncc(Cl)c1)c1ccc(-c2ccc(Cl)cc2)o1", "inhibition": "89%"}, {"molecule": "NC(=O)c1ncccc1OC(=O)c1ccco1", "inhibition": "14%"}, {"molecule": "O=C(Oc1cc(Cl)cnc1O)c1ccco1", "inhibition": "inactive"}, {"molecule": "O=C(Oc1cncc(Cl)c1)c1ccc2ccccc2c1", "inhibition": "80%"}, {"molecule": "O=C(Oc1cccnc1O)c1ccco1", "inhibition": "inactive"}, {"molecule": "CCOc1nc(-c2ccc3ccccc3c2)oc1C(=O)Oc1cncc(Cl)c1", "inhibition": "34%"}, {"molecule": "O=C(Oc1cncc(Cl)c1)c1ccc(-c2ccccc2)o1", "inhibition": "80%"}, {"molecule": "CCOc1nc(C(c2ccccc2)c2ccccc2)oc1C(=O)Oc1cncc(Cl)c1", "inhibition": "5%"}, {"molecule": "O=C(Oc1cncc(Cl)c1)c1c[nH]cn1", "inhibition": "82%"}, {"molecule": "O=C(Oc1ccncc1)c1ccco1", "inhibition": "inactive"}]}, {"biological_target": "Genome polyprotein (rhinovirus A16) (UniProt Q82122)", "assay": "Inhibition of HRV-16 protease 3C expressed in Escherichia coli BL21(DE3) at 10 uM by FRET assay", "units": {"inhibition": "%"}, "values": [{"molecule": "NC(=O)c1ccc(OC(=O)c2ccco2)cc1", "inhibition": 21}]}, {"biological_target": "Genome polyprotein (rhinovirus A16, UniProt Q82122)", "sequence (Q82122 1511-1693 limits assumed)": "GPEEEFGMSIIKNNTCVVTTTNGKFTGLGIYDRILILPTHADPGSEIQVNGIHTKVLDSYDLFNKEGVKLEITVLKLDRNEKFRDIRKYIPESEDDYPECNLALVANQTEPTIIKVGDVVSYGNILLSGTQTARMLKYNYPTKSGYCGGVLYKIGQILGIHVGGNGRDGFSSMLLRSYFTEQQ", "assay": "Inhibition of HRV-16 protease 3C expressed in Escherichia coli BL21(DE3) by FRET assay", "units": {"IC50": "nM"}, "values": [{"molecule": "O=C(Oc1cncc(Br)c1)c1ccco1", "IC50": 80}, {"molecule": "CCOc1nc(/C=C/c2ccccc2)oc1C(=O)Oc1cncc(Cl)c1", "IC50": 690}, {"molecule": "O=C(Oc1cc(=O)[nH]c2ccccc12)c1ccco1", "IC50": 200}, {"molecule": "O=C(Oc1cncc(Cl)c1)c1cnc[nH]1", "IC50": 290}, {"molecule": "O=C(Oc1cncc(Cl)c1)c1ccc2ccccc2c1", "IC50": 710}]}, {"biological_target": "Replicase polyprotein 1ab (Severe acute respiratory syndrome-related coronavirus, UniProt P0C6X7)", "assay": "Inhibition of SARS coronavirus isolate Tor2 3C-like protease by FRET assay", "units": {"IC50": "nM"}, "values": [{"molecule": "O=C(Oc1cccnc1)c1cccs1", "IC50": 500}]}]}
